# Source: patent publication US20230256017A1, “METHODS OF MAKING CHIMERIC ANTIGEN RECEPTOR-EXPRESSING CELLS” (Novartis AG, priority 2020, published 2023)
# Key:
# Type in all cases: cell-based
# T cells [1] = test: ARM-BCMA CAR expression kinetics in vitro with or without AZT (FACS); settings: 30 µM and 100 µM doses
# Description: In contrast to TM which measures lentiviral integration of the CAR transgene after 8-9 days, in the ARM process, the lentiviral transgene may not be fully integrated and truly expressed within 24h post lentiviral addition, as lentiviral pseudotransduction could occur (Haas DL, et al., (2000) Mol Ther; 2(1):71-80; Galla M, et al., (2004) Mol Cell; 16(2):309-15). […] Flow cytometry (FACS) analyses were performed to detect CAR surface expression at 24 h, 48 h, 72 h, 96 h and 168 h post T cell activation and transduction with the lentiviral vector. In some cases, ARM-BCMA CAR and an aliquot of this product were frozen down immediately upon harvest for additional characterization in other assays.
# T cells [2] = test: T cell expansion with cytokines after TCR stimulation (cell surface staining)
# Description: Previously frozen T cells were thawed and contacted with αCD3/αCD28 dynal beads (cell to bead ratio of 1 to 3) in the presence of indicated cytokines at day 0. From day 3, twice more T cell growth media (RPMI1640, 10% FBS, 2 mM L-glutamin, 100 µM non-essential amino acids, 1 mM sodium pyruvate, 10 mM Hepes, 55 µM β-mercaptoethanol, 10% FBS, and 100 U/ml of penicillin-streptomycin) was added to the plate with indicated cytokines (without cytokine, rhIL2 (50 IU/ml, Novartis), IL6 (10 ng/ml, R&D systems), IL7 (10 ng/ml, Peprotech), IL15 (10 ng/ml, Peprotech), and IL21 (10 ng/ml, Peprotech)) at day 3, 5, 6, 9, 12, 15, and 18.
# Cells were harvested at indicated time points and then stained with live/dead dye (eFluro780, eBioscience), CD3 (BioLegend, clone#: OKT3), CD4 (BioLegend, clone#: OKT4), CD8 (BD Bioscience, clone#: RPA-T8), CD45RO (BioLegend, clone#: UCHL1), CCR7 (BioLegend, clone#: G043H7), CD27 (BD Horizon, clone#: L128), CD127 (BioLegend, clone#: A019D5), CD57 (BioLegend, clone#: HCD57), CD126 (BioLegend, clon#: UV4), and CD130 (R&D Systems, clone#: 28126) antibodies. The cells were acquired by FACS Fortessa and then FlowJo program was used for data analysis.
# T cells [3] = test: Cytokine process: T cell differentiation status and CAR transduction by flow cytometry; settings: purified T cells incubated with cytokine, no other activation stimulus
# Description: The cells were immunophenotyped for T cell differentiation status and transduction of the CAR was assessed using flow cytometry. The cells were washed, viability dye was added followed by the antibody cocktail (Table 20), and the plates were incubated for 20 minutes at room temperature. After the incubation, the cells were washed twice and fixed prior to being analyzed on the BD fortessa.
compound,measurement,setting,value
"Cc1cn([C@H]2C[C@H](N=[N+]=[N-])[C@@H](CO)O2)c(=O)[nH]c1=O [AZT, 3′-azido-3′-deoxythymidine]",inhibition of CAR expression,T cells [1],effectively inhibit CAR expression
IL15: cytokine present during activation of T cells with αCD3αCD28 beads,expansion of IL6Rβ expressing cells,T cells [2]; αCD3/αCD28 beads plus cytokine,enhanced expansion of IL6Rβ expressing cells
same,T cell expansion,T cells [2]; αCD3/αCD28 beads plus indicated cytokine,"enhanced T cell expansion, with IL15 showing the greatest enhancement"
IL-15: cytokine used in T cell culture,maintenance of self-renewing T cells (CD45RO-CCR7+),T cells [3],maintained self-renewing T cells in vitro
